Results published in article PMC10005301, “Prediction of the n-Octanol/Water Partition Coefficients of Basic Compounds Using Multi-Parameter QSRR Models Based on IS-RPLC Retention Behavior in a Wide pH Range” (Molecules, 2023).
Where two headings read alike, the source gives them in different places.

What was measured:
[1] = IS-RPLC retention on silica-based C18 column, logkw by linear solvent strength model; assay type: physicochemical
Protocol: (§1) The retention behavior of the 42 basic compounds (Table 1) were investigated at different ratios of methanol (φ = 0.7–0.1, the interval was 0.1 or 0.05 based on the retention of the investigated solutes). The logk values were plotted versus φ for each solute at pH 7.0, pH 8.0, pH 9.0, and pH 10.0. […] The logD values of the model compounds and verification compounds calculated using Equation (S3) based on the logP and pH values are also listed in Table 1.
The column temperature was set at 30 °C. Methanol and 20 mmol/L ammonium phosphate buffer (pH = 7.0, 8.0, 9.0, 10.0) was used as the mobile phase to perform isocratic elution. The injection volume was 10 µL and the detection wavelength for each eluted compound was set at its optimum absorption wavelength.
(§2) At each pH, the retention time (tR) of every analyte was determined for at least four different volume fractions (φ) of methanol. All the tR values of the solutes were obtained by averaging the results of at least three independent injections. The tR value was corrected using dual-point retention time correction (DP-RTC). For a detailed description of the process, refer to our previous work. For the different hydrophobicities of the studied compounds, benzene, toluene, and benzyl alcohol were used as anchor compounds in the DP-RTC method. The dead time t0 was determined using uracil. For each solute, the logarithm of k was plotted against φ, and logkw was obtained using the Equation (S1). The logD values of the model compounds were calculated using Equation (S3), and the logD–logkw models were established with Equation (S4). The statistical analysis for the regression model was accomplished using Origin 9.4. […]
(§3) Where, k is the capacity factor, φ is the volume fraction of organic modifier in the mobile phase, and S is the constant obtained by linear regression in the equations. […]
The Eqs. (S1) and (S2) are the basis for the determination of logP by revered- phase liquid chromatography (RPLC) method. For dissociative solutes, it has been confirmed by many studies that the logD calibrated from logP has a better linear correlation with logkw than logP. […]

[2] = design: method as in UFZ-LSER database; conditions: hydrogen bonding parameter B; ref UFZ-LSER database; cited from earlier work
[3] = for logDpH 7.0: pH 7; for logDpH 8.0: pH 8; for logDpH 9.0: pH 9
Excerpt: as §1, §2, §3
and logkw, which is usually called Collander equation [25 ]. lo g lo g wPm k n= + (S2)
Where, m and n are constants obtained by linear regression.
The Eqs. (S1) and (S2) are the basis for the determination of logP by revered- phase liquid chromatography (RPLC) method. For dissociative solutes, it has been confirmed by many studies that the logD calibrated from logP has a better linear correlation with logkw than logP.
For basic compounds, the logD value can be calibrated from Eq. (S3), and the Collander equation can be rewritten into Eq. (S4). log log( )D − −+ −+= + ++P […]
lo g ' lo g 'Dm k n= +w (S4)
Where, pKa1, pKa2 , … p Kan are the dissociation constants of basic compounds of corresponding acids in the mobile phase, pH is the pH value of mobile phase, m′ and n′ are fitting parameters. Han et al. pointed out that although mobile phase pH and pKa of solutes will change along with the varied organic modifier fraction, the difference between a couple of relevant pH and pKa is a constant. Therefore, the used pH and pKa in this paper were both the values obtained at 100% aqueous phase. […]

[4] = n-octanol/water; ref database module of ACD/Labs software; cited from earlier work
[5] = physchem
Protocol: Multi-parameter QSRR models including logD, logkw, ne, A, and B were established using the multiple linear regression (MLR) method. In the process of linear fitting, ne, A, B, and their different combinations were introduced to optimize the models.
The logD values reported in the literature for these four compounds were calculated using Equation (S3) with corresponding pKa, logP, and pH values.
At each pH, the retention time (tR) of every analyte was determined for at least four different volume fractions (φ) of methanol. All the tR values of the solutes were obtained by averaging the results of at least three independent injections. The tR value was corrected using dual-point retention time correction (DP-RTC). For a detailed description of the process, refer to our previous work. For the different hydrophobicities of the studied compounds, benzene, toluene, and benzyl alcohol were used as anchor compounds in the DP-RTC method. The dead time t0 was determined using uracil. For each solute, the logarithm of k was plotted against φ, and logkw was obtained using the Equation (S1). The logD values of the model compounds were calculated using Equation (S3), and the logD–logkw models were established with Equation (S4). The statistical analysis for the regression model was accomplished using Origin 9.4.

[6] = pH 7.0, methanol/20 mmol/L ammonium phosphate buffer, Welch Xtimate C18, 30 °C, 100% aqueous extrapolation
[7] = pH 8.0, methanol/20 mmol/L ammonium phosphate buffer, Welch Xtimate C18, 30 °C, 100% aqueous extrapolation
[8] = pH 9.0, methanol/20 mmol/L ammonium phosphate buffer, Welch Xtimate C18, 30 °C, 100% aqueous extrapolation
[9] = pH 10.0, methanol/20 mmol/L ammonium phosphate buffer, Welch Xtimate C18, 30 °C, 100% aqueous extrapolation
[10] = IS-RPLC retention (logkw), pH 7
[11] = IS-RPLC retention (logkw), pH 8
[12] = IS-RPLC retention (logkw), pH 9
[13] = IS-RPLC retention (logkw), pH 10

Compound: Cc1cc(C)nc(C)c1 [2,4,6-Trimethylpyridine]
- logkw-pH 7.0 [1, 6]: 2.06
- logkw-pH 8.0 [1, 7]: 2.23
- logkw-pH 9.0 [1, 8]: 2.30
- logkw-pH 10.0 [1, 9]: 2.34
- B [2]: 0.63
- logDpH 7.0 [3]: 1.44
- logDpH 8.0 [3]: 1.91
- logDpH 9.0 [3]: 2.00
- logDpH 10.0 ([3]; pH 10.0, calculated with literature logP, pKa and pH, Equation (S3)): 2.01
- logP [4]: 2.01

Compound: CCc1ccccc1N [2-Ethylaniline]
- logkw-pH 7.0 [1, 6]: 1.87
- logkw-pH 8.0 [1, 7]: 1.94
- logkw-pH 9.0 [1, 8]: 1.95
- logkw-pH 10.0 [1, 9]: 1.95
- B [2]: 0.96
- logDpH 7.0 [3]: 1.63
- logDpH 8.0 [3]: 1.67
- logDpH 9.0 [3]: 1.67
- logDpH 10.0 ([3]; pH 10): 1.67
- chromatographic logD ([5]; pH 7): 1.79
- chromatographic logD ([5]; pH 8): 1.77
- chromatographic logD ([5]; pH 9): 1.75
- chromatographic logD ([5]; pH 10): 1.71

Compound: Cc1ccccc1N [2-Methylaniline]
- logkw-pH 7.0 ([1]; pH 7): 1.47
- logkw-pH 8.0 ([1]; pH 8): 1.44
- logkw-pH 9.0 ([1]; pH 9): 1.45
- logkw-pH 10.0 ([1]; pH 10): 1.49
- B [2]: 0.97
- logDpH 7.0 [3]: 1.40
- logDpH 8.0 [3]: 1.40
- logDpH 9.0 [3]: 1.40
- logDpH 10.0 ([3]; pH 10): 1.40
- logP [4]: 1.40

Compound: Nc1cccc(S(=O)(=O)c2cccc(N)c2)c1 [3,3’-Sulfonyldianiline]
- logkw-pH 7.0 [1, 6]: 1.78
- logkw-pH 8.0 [1, 7]: 1.83
- logkw-pH 9.0 [1, 8]: 1.83
- logkw-pH 10.0 [1, 9]: 1.47
- B [2]: 1.82
- chromatographic logD [5, 10]: 1.7
- chromatographic logD [5, 11]: 1.67
- chromatographic logD [5, 12]: 1.2
- chromatographic logD [5, 13]: 0.69

Compound: Nc1ccc(I)cc1 [4-Iodoaniline]
- logkw-pH 7.0 [1, 6]: 2.22
- logkw-pH 8.0 [1, 7]: 2.28
- logkw-pH 9.0 [1, 8]: 2.29
- logkw-pH 10.0 [1, 9]: 2.28
- B [2]: 1.53
- chromatographic logD [5, 10]: 2.14
- chromatographic logD [5, 11]: 2.1
- chromatographic logD [5, 12]: 2.13
- chromatographic logD [5, 13]: 2.08

Compound: Cc1c[nH]cn1 [4-Methylimidazole]
- logkw-pH 7.0 ([1]; pH 7): −0.08
- logkw-pH 8.0 ([1]; pH 8): 0.19
- logkw-pH 9.0 ([1]; pH 9): 0.32
- logkw-pH 10.0 ([1]; pH 10): 0.39
- B [2]: 0.64
- chromatographic logD [5, 10]: -0.54
- chromatographic logD [5, 11]: 0.06
- chromatographic logD [5, 12]: 0.08
- chromatographic logD [5, 13]: 0.07

Compound: O=C(O)c1cc(O)nc(O)c1 [Citrazinic acid]
- logkw-pH 7.0 [1, 6]: 1.18
- logkw-pH 8.0 [1, 7]: 1.18
- logkw-pH 9.0 [1, 8]: 1.20
- logkw-pH 10.0 [1, 9]: 1.30
- B [2]: 1.23
- chromatographic logD [5, 10]: 2.29
- chromatographic logD [5, 11]: 2.05
- chromatographic logD [5, 12]: 1.2
- chromatographic logD [5, 13]: 1.87

Compound: CCC(C(N)=O)N1CCCC1=O (stereo not drawn) [Etiracetam]
- logkw-pH 7.0 [1, 6]: 0.80
- logkw-pH 8.0 [1, 7]: 0.66
- logkw-pH 9.0 [1, 8]: 0.82
- logkw-pH 10.0 [1, 9]: 0.88
- B [2]: 1.03
- chromatographic logD [5, 10]: 0.7
- chromatographic logD [5, 11]: 0.54
- chromatographic logD [5, 12]: 0.17
- chromatographic logD [5, 13]: 0.04
